Test results published in BindingDB's records for doi:10.1016/s0014-2999(98)00159-9 (Novartis Pharma, 1998).
“And” between values parts separate entries of the source, which are not always exact repeats. Identical values can stand only once. Where a SMILES comes first, the peptide text is derived from it. Bridges are numbered along the chain shown (N, C = ends). [ ]: non-standard residue; d: D form. The star is where a group is joined. d1Nal = N[C@H](Cc1cccc2ccccc12)C(=O)O; Ahp = NCCCCCCC(=O)O; Bn = c1ccc(C*)cc1

Tests used:
[1] = target: Somatostatin receptor type 2 (Homo sapiens, UniProt P30874)
Sequence of Somatostatin receptor type 2 (P30874 whole entry): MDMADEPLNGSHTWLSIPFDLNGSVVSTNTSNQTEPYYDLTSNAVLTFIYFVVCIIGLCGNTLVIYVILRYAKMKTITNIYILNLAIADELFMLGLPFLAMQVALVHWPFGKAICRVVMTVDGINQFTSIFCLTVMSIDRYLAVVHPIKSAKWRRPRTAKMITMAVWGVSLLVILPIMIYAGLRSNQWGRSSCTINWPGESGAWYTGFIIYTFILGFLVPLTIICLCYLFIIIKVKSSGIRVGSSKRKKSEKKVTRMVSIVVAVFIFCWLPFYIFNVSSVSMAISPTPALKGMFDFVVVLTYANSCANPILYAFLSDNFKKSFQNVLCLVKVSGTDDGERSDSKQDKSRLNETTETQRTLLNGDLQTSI

[2] = target: Somatostatin receptor type 5 (Homo sapiens, UniProt P35346)
Sequence of Somatostatin receptor type 5 (P35346 whole entry): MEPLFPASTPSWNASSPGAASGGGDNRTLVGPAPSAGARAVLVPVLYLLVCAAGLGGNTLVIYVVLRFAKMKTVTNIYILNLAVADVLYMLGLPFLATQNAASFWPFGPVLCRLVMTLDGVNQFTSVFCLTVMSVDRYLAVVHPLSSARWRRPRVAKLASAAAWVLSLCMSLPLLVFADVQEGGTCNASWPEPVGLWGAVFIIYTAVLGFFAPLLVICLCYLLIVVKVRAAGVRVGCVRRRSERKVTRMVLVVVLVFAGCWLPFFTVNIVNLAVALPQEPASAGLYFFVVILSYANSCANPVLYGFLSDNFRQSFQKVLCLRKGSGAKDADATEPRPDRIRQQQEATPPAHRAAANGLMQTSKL

| Structure (SMILES) | Ki [1] | Ki [2] |
| --- | --- | --- |
| C[C@@H](O)[C@@H]1NC(=O)[C@H](CCCCN)NC(=O)[C@@H](Cc2c[nH]c3ccccc23)NC(=O)[C@H](Cc2ccccc2)NC(=O)[C@@H]2CCCN2C(=O)[C@H](Cc2ccccc2)NC1=O (cyclo(PF[dW]KTF)) | 5.24 nM and 4.07 nM and 4.78 nM and 0.53 nM |  |
| CC(C)[C@@H]1NC(=O)[C@H](CCCCN)NC(=O)[C@@H](Cc2c[nH]c3ccccc23)NC(=O)[C@H](Cc2ccc(O)cc2)NC(=O)[C@@H](NC(=O)[C@H](N)Cc2ccc3ccccc3c2)CSSC[C@@H](C(=O)N[C@H](C(N)=O)[C@@H](C)O)NC1=O [3-(2-Naphtyl)-D-Ala-L-Cys(1)-L-Tyr-D-Trp-L-Lys-L-Val-L-Cys(1)-L-Thr-NH2] | 0.53 nM and 1.38 nM and 0.28 nM and 0.21 nM |  |
| CC(C)[C@H](NC(=O)[C@H](CCCCN)NC(=O)[C@@H](Cc1c[nH]c2ccccc12)NC(=O)[C@H](Cc1ccc(O)cc1)NC(=O)[C@H](Cc1ccccc1)NC(=O)[C@H](N)Cc1ccccc1)C(=O)N[C@@H](Cc1ccccc1)C(=O)N[C@H](Cc1cccc2ccccc12)C(N)=O [BIM 23056] (H-[dF]FY[dW]KVF[d1Nal]-NH2) | 468 nM and 724 nM and 417 nM and 224 nM |  |
| C[C@@H](O)[C@H](NC(=O)[C@H](Cc1ccccc1)NC(=O)[C@@H](NC(=O)[C@H](CCCCN)NC(=O)[C@@H](Cc1c[nH]c2ccccc12)NC(=O)[C@H](Cc1ccccc1)NC(=O)[C@H](Cc1ccccc1)NC(=O)[C@H](N)Cc1ccccc1)[C@@H](C)O)C(N)=O [CAS_133073-82-2] (H-[dF]FF[dW]KTFT-NH2) | 1.73 nM and 5.01 nM and 16.6 nM and 2.81 nM and 1.86 nM |  |

Now from value to compound:

| Ki [1] | Ki [2] | Structure (SMILES) |
| --- | --- | --- |
| 0.91 nM and 1.77 nM and 4.46 nM | 0.57 nM and 1.94 nM and 0.45 nM | C[C@@H](O)[C@@H]1NC(=O)[C@H](CCCCN)NC(=O)[C@H](Cc2c[nH]c3ccccc23)NC(=O)[C@H](Cc2ccccc2)NC(=O)[C@H](Cc2ccccc2)NC(=O)[C@H](CC(N)=O)NC(=O)[C@H](CCCCN)NC(=O)[C@@H](NC(=O)[C@@H]2CCCN2)CSSC[C@@H](C(=O)N[C@@H](CCCCN)C(=O)O)NC(=O)[C@H](CO)NC(=O)[C@H](CO)NC(=O)[C@H](Cc2ccccc2)NC1=O [CORTISTATIN-14] (H-PCKNFFWKTFSSCK-OH; disulfide 2-13) |
| 2.04 nM and 4.36 nM and 1.62 nM |  | C[C@@H](O)[C@@H]1NC(=O)[C@H](CCCCN)NC(=O)[C@@H](Cc2c[nH]c3ccccc23)NC(=O)[C@H](Cc2c[nH]c3ccccc23)NC(=O)[C@H](Cc2ccccc2)NC(=O)CCCCCCNC(=O)[C@H](Cc2ccccc2)NC1=O [L-362855] (cyclo([Ahp]FW[dW]KTF)) |
| 1580 nM and 3980 nM and 3720 nM and 1700 nM and 1260 nM |  | C[C@@H](OCc1ccccc1)[C@@H]1NC(=O)[C@H](CCCCN)NC(=O)[C@@H](Cc2c[nH]c3ccccc23)NC(=O)[C@H](Cc2ccccc2)NC(=O)CCCCCCNC1=O [c[Aha-Phe-D-Trp-Lys-Thr(Bzl)]] (cyclo([Ahp]F[dW]KT(Bn))) |
